In patent US20260325533A1, “CDK INHIBITOR COMPOUNDS” (ALEKSIA THERAPEUTICS, INC., priority 2023, published 2026):
Read-outs that look alike come from different tables or passages of the source.

Columns and labels:
Type in all cases: biochemical
[1] = biological target: CDK2/CCNE1 (Homo sapiens, UniProt P24941); test: CDK2 homogeneous time-resolved fluorescence (HTRF) kinase assay; settings: CDK2/CCNE
How it was run: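 3 nM CDK2/CCNE1 was preincubated with compound for 20 min at 23 °C in HEPES buffer (pH not stated), then reacted 60 min with 1 mM ATP and 50 nM ULight-4E-BP1 (Thr37/46) peptide. After EDTA stop, Eu-anti-phospho-4E-BP1 antibody (2 nM) was added for 60 min and TR-FRET read at 665 nm.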

[2] = biological target: CDK1/CCNB1 (Homo sapiens, UniProt P06493); test: CDK1 homogeneous time-resolved fluorescence (HTRF) kinase assay; settings: CDK1/CCNB
Sequence of CDK1/CCNB1 (P06493 whole entry): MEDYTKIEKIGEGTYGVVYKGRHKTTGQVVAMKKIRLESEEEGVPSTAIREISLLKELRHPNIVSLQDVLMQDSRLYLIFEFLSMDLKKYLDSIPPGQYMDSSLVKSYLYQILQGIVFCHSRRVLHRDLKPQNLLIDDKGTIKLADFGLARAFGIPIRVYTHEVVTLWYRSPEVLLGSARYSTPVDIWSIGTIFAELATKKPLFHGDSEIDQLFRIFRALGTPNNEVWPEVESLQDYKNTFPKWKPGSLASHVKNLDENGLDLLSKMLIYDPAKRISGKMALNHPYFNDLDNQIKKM
Sequence of CDK1/CCNB1 (P14635 whole entry partner): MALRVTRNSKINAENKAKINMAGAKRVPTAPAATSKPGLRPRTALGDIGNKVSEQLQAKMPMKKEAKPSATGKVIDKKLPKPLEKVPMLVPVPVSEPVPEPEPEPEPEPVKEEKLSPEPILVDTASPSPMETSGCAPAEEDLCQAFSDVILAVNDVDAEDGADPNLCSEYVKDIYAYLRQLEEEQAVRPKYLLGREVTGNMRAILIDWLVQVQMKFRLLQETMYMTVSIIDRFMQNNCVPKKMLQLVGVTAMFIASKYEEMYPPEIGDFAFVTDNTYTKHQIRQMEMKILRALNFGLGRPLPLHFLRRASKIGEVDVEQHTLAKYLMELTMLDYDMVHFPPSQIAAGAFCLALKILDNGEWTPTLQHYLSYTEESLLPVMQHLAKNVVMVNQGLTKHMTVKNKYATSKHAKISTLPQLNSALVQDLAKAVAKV
How it was run: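 CDK1/CCNB1 0.5 nM + cpd, 20 min 23 °C; add 1 mM ATP, 50 nM ULight-4E-BP1 peptide, 60 min 23 °C; stop 10 mM EDTA; 2 nM Eu-Ab, 60 min; HTRF 665 nm. 11-pt half-log, top 10 μM typical; IC50.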

[3] = biological target: CDK6/CCND1 (Homo sapiens, UniProt Q00534); test: CDK6 homogeneous time-resolved fluorescence (HTRF) kinase assay; settings: CDK6/CCND
Sequence of CDK6/CCND1 (Q00534 whole entry): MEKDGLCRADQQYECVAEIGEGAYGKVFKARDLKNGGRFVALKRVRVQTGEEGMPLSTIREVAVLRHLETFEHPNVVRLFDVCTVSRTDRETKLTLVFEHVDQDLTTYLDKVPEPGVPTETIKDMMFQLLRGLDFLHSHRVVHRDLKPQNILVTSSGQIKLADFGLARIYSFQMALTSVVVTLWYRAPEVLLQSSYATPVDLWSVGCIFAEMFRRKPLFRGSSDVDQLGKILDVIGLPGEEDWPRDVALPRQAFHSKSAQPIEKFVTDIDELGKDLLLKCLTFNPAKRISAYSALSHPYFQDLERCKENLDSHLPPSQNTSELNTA
Sequence of CDK6/CCND1 (P24385 whole entry partner): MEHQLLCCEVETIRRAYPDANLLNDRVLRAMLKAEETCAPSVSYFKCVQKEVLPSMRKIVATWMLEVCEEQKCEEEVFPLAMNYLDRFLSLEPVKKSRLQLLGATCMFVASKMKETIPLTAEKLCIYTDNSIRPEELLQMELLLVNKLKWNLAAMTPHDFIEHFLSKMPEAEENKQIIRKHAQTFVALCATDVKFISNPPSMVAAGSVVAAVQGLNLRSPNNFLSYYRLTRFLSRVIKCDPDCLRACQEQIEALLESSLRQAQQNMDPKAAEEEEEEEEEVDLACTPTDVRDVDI
How it was run: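 Enzyme pre-incubated 20 min at 23 °C with compound, then reacted 60 min at 23 °C with 1 mM ATP and 50 nM ULight-4E-BP1 (Thr37/46) peptide; 1 nM enzyme, 1% DMSO. EDTA-stopped, Eu-anti-phospho antibody TR-FRET read (665 nm or 665/615 ratio); 11-point half-log titration from 10 μM gave IC50.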

[4] = biological target: CDK4/CCND3 (Homo sapiens, UniProt P11802); test: CDK4 homogeneous time-resolved fluorescence (HTRF) kinase assay; settings: CDK4/CCND
Sequence of CDK4/CCND3 (P11802 whole entry): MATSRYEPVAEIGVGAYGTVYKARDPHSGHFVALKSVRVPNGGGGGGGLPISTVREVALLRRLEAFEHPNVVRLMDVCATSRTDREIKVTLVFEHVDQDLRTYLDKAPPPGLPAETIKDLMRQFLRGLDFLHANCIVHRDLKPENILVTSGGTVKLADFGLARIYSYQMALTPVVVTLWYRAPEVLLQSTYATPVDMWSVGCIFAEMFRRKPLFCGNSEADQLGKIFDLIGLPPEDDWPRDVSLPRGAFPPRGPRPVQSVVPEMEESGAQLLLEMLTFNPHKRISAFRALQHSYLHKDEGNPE
Sequence of CDK4/CCND3 (P30281 whole entry partner): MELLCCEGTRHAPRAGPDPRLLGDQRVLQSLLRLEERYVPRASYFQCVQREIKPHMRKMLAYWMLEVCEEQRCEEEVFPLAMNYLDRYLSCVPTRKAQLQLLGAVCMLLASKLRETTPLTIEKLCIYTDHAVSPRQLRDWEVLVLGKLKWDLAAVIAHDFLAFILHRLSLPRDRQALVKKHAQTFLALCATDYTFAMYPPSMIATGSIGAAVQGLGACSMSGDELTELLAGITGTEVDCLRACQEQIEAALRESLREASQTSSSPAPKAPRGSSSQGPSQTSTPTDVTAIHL
How it was run: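 Steps: compound plus 1.5 nM CDK4/CCND3, 20 min, 23 °C; add 1 mM ATP and 50 nM ULight-4E-BP1 (Thr37/46) peptide, 60 min; stop with 10 mM EDTA; add 2 nM Eu anti-phospho antibody, 60 min; read 665 nm. IC50 from 11-point half-log series starting 10 μM.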

[5] = 25-250 nM marked x, read-out: CDK2/CCNE IC50 25-250 nM
[6] = >250 nM marked x, read-out: CDK1/CCNB IC50 >250 nM
[7] = >250 nM marked x, read-out: CDK6/CCND IC50 >250 nM
[8] = >250 nM marked x, read-out: CDK4/CCND IC50 >250 nM
[9] = <25 nM, read-out: CDK2/CCNE IC50 <25 nM
[10] = 25-250 nM marked x, read-out: CDK1/CCNB IC50 25-250 nM
[11] = 25-250 nM marked x, read-out: CDK4/CCND IC50 25-250 nM

Row | Compound | IC50 [1, 5] [µM] | IC50 [2, 6] [µM] | IC50 [3, 7] [µM] | IC50 [4, 8] [µM] | IC50 [1, 9] [µM] | IC50 ([1]; >250 nM marked x, read-out: CDK2/CCNE IC50 >250 nM) [µM] | IC50 [2, 10] [µM] | IC50 ([3]; 25-250 nM marked x, read-out: CDK6/CCND IC50 25-250 nM) [µM] | IC50 [4, 11] [µM]
1 | CCC1(CC)C(=O)Nc2cc(C#Cc3nccc4cnc(Nc5ccc(S(=N)(=O)CC(F)(F)F)cc5C)cc34)ccc21 (single isomer, unassigned) [Ex 284, 3,3-diethyl-6-((7-((2-methyl-4-(2,2,2-trifluoroethylsulfonimidoyl)phenyl)amino)-2,6-naphthyridin-1-yl)ethynyl)indolin-2-one] | 0.025 to 0.25 | > 0.25 | > 0.25 | > 0.25 | – | – | – | – | –
2 | CCS(=N)(=O)c1ccc(Nc2cc3c(C#Cc4ccc5c(c4)NC(=O)C54CC4)nccc3cn2)c(OC)c1 (single isomer, unassigned) [Ex 289, 6'-((7-((4-(ethylsulfonimidoyl)-2-methoxyphenyl)amino)-2,6-naphthyridin-1-yl)ethynyl)spiro[cyclopropane-1,3'-indolin]-2'-one] | – | > 0.25 | > 0.25 | > 0.25 | < 0.025 | – | – | – | –
3 | CCC1(CC)C(=O)Nc2cc(C#Cc3nccc4cnc(Nc5ccc(S(C)(=N)=O)cc5C(F)F)cc34)ccc21 (single isomer, unassigned) [Ex 294, 6-((7-((2-(difluoromethyl)-4-(S-methylsulfonimidoyl)phenyl)amino)-2,6-naphthyridin-1-yl)ethynyl)-3,3-diethylindolin-2-one] | 0.025 to 0.25 | > 0.25 | > 0.25 | > 0.25 | – | – | – | – | –
4 | CCC1(CC)C(=O)Nc2cc(C#Cc3nccc4cnc(Nc5ccc(S(=N)(=O)C6CC6)cc5OC)cc34)ccc21 (single isomer, unassigned) [Ex 299, 6-((7-((4-(cyclopropanesulfonimidoyl)-2-methoxyphenyl)amino)-2,6-naphthyridin-1-yl)ethynyl)-3,3-diethylindolin-2-one] | 0.025 to 0.25 | > 0.25 | > 0.25 | > 0.25 | – | – | – | – | –
5 | CCC1(CC)C(=O)Nc2cc(C#Cc3nccc4cnc(Nc5ccc(S(=N)(=O)C6CC(F)(F)C6)cc5F)cc34)ccc21 (single isomer, unassigned) [Ex 301, 6-((7-((4-(3,3-difluorocyclobutane-1-sulfonimidoyl)-2-fluorophenyl)amino)-2,6-naphthyridin-1-yl)ethynyl)-3,3-diethylindolin-2-one] | – | > 0.25 | > 0.25 | > 0.25 | – | > 0.25 | – | – | –
6 | CCC1(CC)C(=O)Nc2cc(C#Cc3nccc4cnc(Nc5ccc(S(=N)(=O)C6CC(F)(F)C6)cc5)cc34)ccc21 (single isomer, unassigned) [Ex 303, 6-((7-((4-(3,3-difluorocyclobutane-1-sulfonimidoyl)phenyl)amino)-2,6-naphthyridin-1-yl)ethynyl)-3,3-diethylindolin-2-one] | 0.025 to 0.25 | > 0.25 | > 0.25 | > 0.25 | – | – | – | – | –
7 | COc1cc(S(C)(=N)=O)ccc1Nc1cc2c(C#Cc3ccc4c(c3)NC(=O)C43CC3)nccc2cn1 (single isomer, unassigned) [Ex 305, 6'-((7-((2-methoxy-4-(S-methylsulfonimidoyl)phenyl)amino)-2,6-naphthyridin-1-yl)ethynyl)spiro[cyclopropane-1,3'-indolin]-2'-one] | – | > 0.25 | > 0.25 | > 0.25 | < 0.025 | – | – | – | –
8 | N=S(=O)(c1ccc(Nc2cc3c(C#Cc4ccc5c(c4)NC(=O)C54CC4)nccc3cn2)cc1)C1CC1 (single isomer, unassigned) [Ex 306, 6'-((7-((4-(cyclopropanesulfonimidoyl)phenyl)amino)-2,6-naphthyridin-1-yl)ethynyl)spiro[cyclopropane-1,3'-indolin]-2'-one] | – | – | – | – | < 0.025 | – | 0.025 to 0.25 | 0.025 to 0.25 | 0.025 to 0.25
9 | CCC1(CC)C(=O)Nc2cc(C#Cc3nccc4cnc(Nc5ccc(S(=N)(=O)CC)cc5OC)cc34)ccc21 (single isomer, unassigned) [Ex 308, 3,3-diethyl-6-((7-((4-(ethylsulfonimidoyl)-2-methoxyphenyl)amino)-2,6-naphthyridin-1-yl)ethynyl)indolin-2-one] | 0.025 to 0.25 | > 0.25 | > 0.25 | > 0.25 | – | – | – | – | –
10 | CCS(=N)(=O)c1ccc(Nc2cc3c(C#Cc4ccc5c(c4)NC(=O)C54CCC4)nccc3cn2)c(OC)c1 (single isomer, unassigned) [Ex 310, 6'-((7-((4-(ethylsulfonimidoyl)-2-methoxyphenyl)amino)-2,6-naphthyridin-1-yl)ethynyl)spiro[cyclobutane-1,3'-indolin]-2'-one] | – | > 0.25 | > 0.25 | > 0.25 | < 0.025 | – | – | – | –
11 | COc1cc(S(C)(=N)=O)ccc1Nc1cc2c(C#Cc3ccc4c(c3)NC(=O)C43CCC3)nccc2cn1 (single isomer, unassigned) [Ex 313, 6'-((7-((2-methoxy-4-(S-methylsulfonimidoyl)phenyl)amino)-2,6-naphthyridin-1-yl)ethynyl)spiro[cyclobutane-1,3'-indolin]-2'-one] | 0.025 to 0.25 | > 0.25 | > 0.25 | > 0.25 | – | – | – | – | –
12 | CCC1(CC)C(=O)Nc2cc(C#Cc3nccc4cnc(Nc5ccc(S(=N)(=O)C6COC6)cc5C)cc34)ccc21 (single isomer, unassigned) [Ex 316, 3,3-diethyl-6-((7-((2-methyl-4-(oxetane-3-sulfonimidoyl)phenyl)amino)-2,6-naphthyridin-1-yl)ethynyl)indolin-2-one] | – | > 0.25 | > 0.25 | > 0.25 | < 0.025 | – | – | – | –
13 | CCC1(CC)C(=O)Nc2cc(C#Cc3nccc4cnc(Nc5ccc(S(=N)(=O)C6COC6)cc5OC)cc34)ccc21 (single isomer, unassigned) [Ex 317, 3,3-diethyl-6-((7-((2-methoxy-4-(oxetane-3-sulfonimidoyl)phenyl)amino)-2,6-naphthyridin-1-yl)ethynyl)indolin-2-one] | 0.025 to 0.25 | > 0.25 | > 0.25 | > 0.25 | – | – | – | – | –
14 | CCC1(CC)C(=O)Nc2cc(C#Cc3nccc4cnc(Nc5ccc(S(C)(=N)=O)cc5OC)cc34)ccc21 (single isomer, unassigned) [Ex 319, 3,3-diethyl-6-((7-((2-methoxy-4-(S-methylsulfonimidoyl)phenyl)amino)-2,6-naphthyridin-1-yl)ethynyl)indolin-2-one] | 0.025 to 0.25 | > 0.25 | > 0.25 | > 0.25 | – | – | – | – | –
15 | COc1cc(S(=N)(=O)C2COC2)ccc1Nc1cc2c(C#Cc3ccc4c(c3)NC(=O)C43CC3)nccc2cn1 (single isomer, unassigned) [Ex 323, 6'-((7-((2-methoxy-4-(oxetane-3-sulfonimidoyl)phenyl)amino)-2,6-naphthyridin-1-yl)ethynyl)spiro[cyclopropane-1,3'-indolin]-2'-one] | – | > 0.25 | > 0.25 | > 0.25 | < 0.025 | – | – | – | –
16 | Cc1cc(S(C)(=N)=O)ccc1Nc1cc2c(C#Cc3ccc4c(c3)NC(=O)C43CC3)nccc2cn1 (single isomer, unassigned) [Ex 326, 6'-((7-((2-methyl-4-(S-methylsulfonimidoyl)phenyl)amino)-2,6-naphthyridin-1-yl)ethynyl)spiro[cyclopropane-1,3'-indolin]-2'-one] | – | – | > 0.25 | – | < 0.025 | – | 0.025 to 0.25 | – | 0.025 to 0.25
17 | Cc1cc(S(C)(=N)=O)ccc1Nc1cc2c(C#Cc3ccc4c(c3)NC(=O)C43CCC3)nccc2cn1 (single isomer, unassigned) [Ex 332, 6'-((7-((2-methyl-4-(S-methylsulfonimidoyl)phenyl)amino)-2,6-naphthyridin-1-yl)ethynyl)spiro[cyclobutane-1,3'-indolin]-2'-one] | – | > 0.25 | > 0.25 | > 0.25 | < 0.025 | – | – | – | –
18 | COc1cc(S(=N)(=O)C(C)C)ccc1Nc1cc2c(C#Cc3ccc4c(c3)NC(=O)C43CC3)nccc2cn1 (single isomer, unassigned) [Ex 334, 6'-((7-((2-methoxy-4-(propan-2-ylsulfonimidoyl)phenyl)amino)-2,6-naphthyridin-1-yl)ethynyl)spiro[cyclopropane-1,3'-indolin]-2'-one] | – | > 0.25 | > 0.25 | > 0.25 | < 0.025 | – | – | – | –
